This note sets out measurements from US20260138976A1 (Hoffmann-La Roche Inc., priority 2022, published 2026).

Where only a bound is given, the exact number is not on record here.

Assay [1] has as its system primary human T-cells. As to the kind of experiment: Proliferation assay (5 days, CellTiter-Glo, CD3-stimulated T-cells). It is filed as cell-based. The following applies: for Emax proliferation (% activation): CD3 condition, normalised to DMSO (neutral) and 20 μM reference compound A1 = 100%; for EC50: Homo sapiens, T-cell, 120 h, CD3-stimulated primary human T-cells, 5 days, CellTiter-Glo, fitted sigmoidal curve, read-out: Tcell Proliferation CD3 EC50. An outline of the steps: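 Expanded primary human T-cells, 100 k cells/well, were stimulated with plate-coated CD3 antibody (donor-titrated) and given compound in a 5 or 6 pt dose response from 20 μM or 10 μM final top, 0.2% DMSO final. ATP was read by CellTiter-Glo after 5 days. EC50 and Emax were reported as % of 20 μM reference compound A1.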
For orientation: In ATP-based viability assays light output follows the ATP content of the culture.

In assay [2] the test system is primary human T-cells. As to the kind of experiment: IL2 secretion measurements (24 h, CD3-stimulated T-cells, PBS counter screen). Format: cell-based. The following applies: for Emax IL2 (% activation): CD3 condition, normalised to DMSO (neutral) and 20 μM reference compound A1 = 100%; for EC50: Homo sapiens, T-cell, CD3-stimulated primary human T-cells, IL2 secretion, fitted sigmoidal curve, read-out: Tcell IL2 CD3 EC50. In outline: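 Expanded primary human T-cells (100k/well) were plated on anti-CD3-coated or PBS-only plates with compound in a 5–6 point dose response (top 20 or 10 μM final, 3.333-fold, 0.2% DMSO). IL-2 in 24 h supernatants was quantified by ProQuantum immunoassay or ELISA. Values were normalized to DMSO and 20 μM reference compound A1 (100%), giving EC50 and Emax.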
On the technique in general: Counterscreens check selectivity or assay interference.

In the case of `N[C@H]1CS(=O)(=O)c2cc(F)c(-c3noc(N4CCCC4)n3)cc2N(Cc2ccc(-c3noc(C(F)(F)F)n3)nc2)C1=O` [Example 15, (3R)-3-amino-8-fluoro-1,1-dioxo-7-(5-pyrrolidin-1-yl-1,2,4-oxadiazol-3-yl)-5-[[6-[5-(trifluoromethyl)-1,2,4-oxadiazol-3-yl]-3-pyridyl]methyl]-2,3-dihydro-1λ^6,5-benzothiazepin-4-one], in assay [1], the “Emax proliferation (% activation)” value was determined as 64 % activation and the EC50 was found to be 3.2 µM. Moreover, in assay [2], the “Emax IL2 (% activation)” value came out at 39 % activation and the EC50 was over 10 µM.

Consider `COCC1CN(c2nnc(-c3ccc4c(c3)N(Cc3ccc(-c5noc(C(F)(F)F)n5)cc3)C(=O)[C@@H](N)CS4(=O)=O)o2)CCO1` (stereo partly drawn) [Example 164, (3R)-3-amino-7-[5-[2-(methoxymethyl)morpholin-4-yl]-1,3,4-oxadiazol-2-yl]-1,1-dioxo-5-[[4-[5-(trifluoromethyl)-1,2,4-oxadiazol-3-yl]phenyl]methyl]-2,3-dihydro-1λ^6,5-benzothiazepin-4-one], for which, in assay [1], the “Emax proliferation (% activation)” value was determined as 86 % activation and the EC50 worked out at 0.39 µM. Also, in assay [2], the “Emax IL2 (% activation)” value was 156 % activation and the EC50 amounted to 3.3 µM.

Turning to `COc1ccc(-c2ccc(CN3C(=O)[C@@H](N)CS(=O)(=O)c4ccc(-c5nnc(N6CCOC(F)(F)C6)o5)cc43)cc2)cc1` [Example 79, (3R)-3-amino-7-[5-(2,2-difluoromorpholin-4-yl)-1,3,4-oxadiazol-2-yl]-5-[[4-(4-methoxyphenyl)phenyl]methyl]-1,1-dioxo-2,3-dihydro-1λ^6,5-benzothiazepin-4-one], in assay [1], the “Emax proliferation (% activation)” value is given as 167 % activation and the EC50 came out at 0.989 µM. Moreover, in assay [2], the “Emax IL2 (% activation)” value was 236 % activation and the EC50 stood at 2.45 µM.

In the case of `N[C@H]1CS(=O)(=O)c2ccc(-c3nnc(N4CCC(F)(F)CC4)o3)cc2N(Cc2ccc(-c3nc(C(F)(F)F)no3)cc2)C1=O` [Example 161, (3R)-3-amino-7-[5-(4,4-difluoro-1-piperidyl)-1,3,4-oxadiazol-2-yl]-1,1-dioxo-5-[[4-[3-(trifluoromethyl)-1,2,4-oxadiazol-5-yl]phenyl]methyl]-2,3-dihydro-1λ^6,5-benzothiazepin-4-one], in assay [1], the “Emax proliferation (% activation)” value worked out at 178 % activation and the EC50 came to 0.327 µM. In assay [2], the “Emax IL2 (% activation)” value amounted to 150 % activation and the EC50 is 3.21 µM.

As for `COC(=O)N1CC2CC(c3nnc(-c4ccc5c(c4)N(Cc4ccc(-c6ccc(C(F)(F)F)cc6)cc4)C(=O)[C@@H](N)CS5(=O)=O)o3)(C2)C1` [Example 60, methyl 1-[5-[(3R)-3-amino-1,1,4-trioxo-5-[[4-[4-(trifluoromethyl)phenyl]phenyl]methyl]-2,3-dihydro-1λ^6,5-benzothiazepin-7-yl]-1,3,4-oxadiazol-2-yl]-3-azabicyclo[3.1.1]heptane-3-carboxylate], in assay [1], the “Emax proliferation (% activation)” value worked out at 110 % activation and the EC50 worked out at 0.0417 µM. Also, in assay [2], the “Emax IL2 (% activation)” value was 163 % activation and the EC50 was found to be 0.424 µM.

Consider `CCC(O)(c1nnc(-c2ccc3c(c2)N(Cc2ccc(-c4noc(C5CC5)n4)cc2)C(=O)[C@@H](N)CS3(=O)=O)o1)C(F)(F)F` (stereo partly shown) [Example 169], for which, in assay [1], the “Emax proliferation (% activation)” value is listed as 106 % activation and the EC50 was determined as 0.833 µM. Moreover, in assay [2], the “Emax IL2 (% activation)” value worked out at 128 % activation and the EC50 worked out at 3.17 µM.

As to `COc1ccc(-c2ccc(CN3C(=O)[C@@H](N)CS(=O)(=O)c4ccc(-c5nnc(N6CCC(F)(F)C6)o5)cc43)cc2)cc1` [Example 76, (3R)-3-amino-7-[5-(3,3-difluoropyrrolidin-1-yl)-1,3,4-oxadiazol-2-yl]-5-[[4-(4-methoxyphenyl)phenyl]methyl]-1,1-dioxo-2,3-dihydro-1λ^6,5-benzothiazepin-4-one], in assay [1], the “Emax proliferation (% activation)” value worked out at 263 % activation and the EC50 was found to be 1.36 µM. Besides, in assay [2], the “Emax IL2 (% activation)” value came to 297 % activation and the EC50 was determined as 2.64 µM.

Consider `CC(C)(C)c1nnc(-c2ccc3c(c2)N(Cc2ccc(-c4noc(C(F)(F)F)n4)cc2)C(=O)[C@@H](N)CS3(=O)=O)o1` [Example 23, (3R)-3-amino-7-(5-tert-butyl-1,3,4-oxadiazol-2-yl)-1,1-dioxo-5-[[4-[5-(trifluoromethyl)-1,2,4-oxadiazol-3-yl]phenyl]methyl]-2,3-dihydro-1λ^6,5-benzothiazepin-4-one], for which, in assay [1], the “Emax proliferation (% activation)” value is given as 136 % activation and the EC50 was 0.316 µM. In addition, in assay [2], the “Emax IL2 (% activation)” value came to 120 % activation and the EC50 was 0.769 µM.

For `Cc1noc(-c2ccc(CN3C(=O)[C@@H](N)CS(=O)(=O)c4cc(F)c(-c5nnc(C(C)(C)C)o5)cc43)cc2)n1` [Example 2], in assay [1], the “Emax proliferation (% activation)” value turned out to be 143 % activation and the EC50 is 0.296 µM. Besides, in assay [2], the “Emax IL2 (% activation)” value is listed as 168 % activation and the EC50 was found to be 0.891 µM.

On to `CC(N)(c1nnc(-c2ccc3c(c2)N(Cc2ccc(-c4noc(CC(F)(F)F)n4)cc2)C(=O)[C@@H](N)CS3(=O)=O)o1)C(F)(F)F` (stereo partly drawn) [Example 33, (3R)-3-amino-7-[5-(1-amino-2,2,2-trifluoro-1-methyl-ethyl)-1,3,4-oxadiazol-2-yl]-1,1-dioxo-5-[[4-[5-(2,2,2-trifluoroethyl)-1,2,4-oxadiazol-3-yl]phenyl]methyl]-2,3-dihydro-1λ^6,5-benzothiazepin-4-one], for which, in assay [1], the “Emax proliferation (% activation)” value stood at 105 % activation and the EC50 turned out to be 3.19 µM. Moreover, in assay [2], the “Emax IL2 (% activation)” value is 24 % activation and the EC50 was over 10 µM.

Consider `C[C@@](N)(c1nnc(-c2ccc3c(c2)N(Cc2ccc(-n4ccc(C(F)(F)F)n4)cc2)C(=O)[C@@H](N)CS3(=O)=O)o1)C(F)(F)F` [Example 157, (3R)-3-amino-7-[5-[(1R)-1-amino-2,2,2-trifluoro-1-methyl-ethyl]-1,3,4-oxadiazol-2-yl]-1,1-dioxo-5-[[4-[3-(trifluoromethyl)pyrazol-1-yl]phenyl]methyl]-2,3-dihydro-1λ^6,5-benzothiazepin-4-one], for which, in assay [1], the “Emax proliferation (% activation)” value is 130 % activation and the EC50 amounted to 0.6 µM. For the same compound, in assay [2], the “Emax IL2 (% activation)” value amounted to 106 % activation and the EC50 was 1.78 µM.

For the compound `CC1(c2nnc(-c3ccc4c(c3)N(Cc3ccc(-c5ccc(C(F)(F)F)cc5)cc3)C(=O)[C@@H](N)CS4(=O)=O)o2)CCO1` (stereo partly drawn) [Example 48, (3R)-3-amino-7-[5-(2-methyloxetan-2-yl)-1,3,4-oxadiazol-2-yl]-1,1-dioxo-5-[[4-[4-(trifluoromethyl)phenyl]phenyl]methyl]-2,3-dihydro-1lambda6,5-benzothiazepin-4-one], in assay [1], the “Emax proliferation (% activation)” value was determined as 139 % activation and the EC50 was determined as 0.321 µM. In addition, in assay [2], the “Emax IL2 (% activation)” value was 114 % activation and the EC50 was determined as 0.984 µM.

For `COCCN1CC(c2nnc(-c3ccc4c(c3)N(Cc3ccc(-c5noc(C(F)(F)F)n5)cc3)C(=O)[C@@H](N)CS4(=O)=O)o2)CC(F)(F)C1` (stereo partly drawn) [Example 182, (3R)-3-amino-7-[5-[5,5-difluoro-1-(2-methoxyethyl)-3-piperidyl]-1,3,4-oxadiazol-2-yl]-1,1-dioxo-5-[[4-[5-(trifluoromethyl)-1,2,4-oxadiazol-3-yl]phenyl]methyl]-2,3-dihydro-1λ^6,5-benzothiazepin-4-one], in assay [1], the “Emax proliferation (% activation)” value is 175 % activation and the EC50 is 1.27 µM. For the same compound, in assay [2], the “Emax IL2 (% activation)” value came to 149 % activation and the EC50 came out at 3.26 µM.

For the compound `CC1(c2nnc(-c3ccc4c(c3)N(Cc3ccc(-c5noc(C(F)(F)F)n5)cc3)C(=O)[C@@H](N)CS4(=O)=O)o2)COC1` [Example 149, (3R)-3-amino-7-[5-(3-methyloxetan-3-yl)-1,3,4-oxadiazol-2-yl]-1,1-dioxo-5-[[4-[5-(trifluoromethyl)-1,2,4-oxadiazol-3-yl]phenyl]methyl]-2,3-dihydro-1λ^6,5-benzothiazepin-4-one], in assay [1], the “Emax proliferation (% activation)” value was 118 % activation and the EC50 was found to be 1.21 µM. In assay [2], the “Emax IL2 (% activation)” value came out at 268 % activation and the EC50 is 0.567 µM.

Turning to `N[C@H]1CS(=O)(=O)c2ccc(-c3nnc(N4CCOC5(CC5)C4)o3)cc2N(Cc2ccc(-c3noc(C(F)(F)F)n3)cc2)C1=O` [Example 77], in assay [1], the “Emax proliferation (% activation)” value came to 58 % activation and the EC50 worked out at 3.93 µM. For the same compound, in assay [2], the “Emax IL2 (% activation)” value is on record as 170 % activation and the EC50 amounted to 3.45 µM.

As to `CC1(Nc2nnc(-c3ccc4c(c3)N(Cc3ccc(-c5noc(C(F)(F)F)n5)cc3)C(=O)[C@@H](N)CS4(=O)=O)o2)CC(F)(F)C1` [Example 72, (3R)-3-amino-7-[5-[(3,3-difluoro-1-methyl-cyclobutyl)amino]-1,3,4-oxadiazol-2-yl]-1,1-dioxo-5-[[4-[5-(trifluoromethyl)-1,2,4-oxadiazol-3-yl]phenyl]methyl]-2,3-dihydro-1λ^6,5-benzothiazepin-4-one], in assay [1], the “Emax proliferation (% activation)” value is on record as 252 % activation and the EC50 is 1.65 µM. In addition, in assay [2], the “Emax IL2 (% activation)” value is listed as 238 % activation and the EC50 stood at 3.28 µM.
